Measured values from ChEMBL document CHEMBL1142152, “Inhibition of anthrax protective antigen outside and inside the cell” (Antimicrob Agents Chemother, 2007).
Calls of active or inactive are those of the source. No cut-off for these calls is given here.

Legend:
Type in all cases: functional, cell-based
KDR = assay: Protection of SLT-VEGF induced toxicity in 293/KDR cells; settings: Homo sapiens
CHO [1] = assay: Inhibition of LFn-Lip uptake in CHO cells expressing TEM8 receptor at 100 uM after 1 hrs; settings: Cricetulus griseus
CHO [2] = assay: Inhibition of LFn-A1 uptake in CHO cells expressing TEM8 receptor at 100 uM; settings: Cricetulus griseus
Mus musculus = species on record: Mus musculus; assay: Cell viability in mouse RAW264.7 cells by LeTx protection assay
CHO [3] = assay: Inhibition of PA-induced apoptosis in CHO cells expressing TEM8 receptor cells at 5 uM after 24 hrs; settings: Cricetulus griseus
CHO [4] = assay: Blockade of PA-induced toxicity in CHO cells expressing TEM8 assessed as cell viability at 5 uM after 48 hrs; settings: Cricetulus griseus

SMILES: NCCCSC[C@H]1O[C@@H]2O[C@H]3[C@H](O)[C@@H](O[C@H]4[C@H](O)[C@@H](O)[C@@H](O[C@H]5[C@H](O)[C@@H](O)[C@@H](O[C@H]6[C@H](O)[C@@H](O)[C@@H](O[C@H]7[C@H](O)[C@@H](O)[C@@H](O[C@H]8[C@H](O)[C@@H](O)[C@@H](OC1[C@H](O)[C@H]2O)O[C@@H]8CSCCCN)O[C@@H]7CSCCCN)O[C@@H]6CSCCCN)O[C@@H]5CSCCCN)O[C@@H]4CSCCCN)[C@@H](O)O[C@@H]3CSCCCN
- Activity (KDR): inactive
- Activity (CHO [1]): inactive
- Activity (CHO [2]): Active
- IC50 (Mus musculus): 7 µM
- Activity (CHO [3]): Active
- Activity (CHO [4]): Active
